We go through two compounds from US12285428B2 (IMBRIA PHARMACEUTICALS, INC., priority 2021, dated 2025).

The structures appear in SMILES notation. Like-named read-outs stand apart in the source and are kept apart here.

The conditions of series [1]: human, in vivo. As for the experimental part: Subjects received multiple oral doses of an IR formulation of IMB-1018972 or placebo once every 12 hours (q12h) for 14 consecutive days.
The doses were selected based upon the safety, tolerability, and PK data from the SAD part: • Group B1 multiple oral doses of an IR formulation of 150 mg IMB-1018972 (n=9) or matching placebo (n=3) twice daily (q12h) for 14 days; on Day 14 only a single morning dose was administered • Group B2: multiple oral doses of an IR formulation of 50 mg IMB-1018972 (n=9) or matching placebo (n=3) q12h for 14 days; on Day 14 only a single morning dose was administered
Before each morning dose, subjects fasted overnight for at least 10 hours following a snack on the evening before. On Days 1 and 14, subjects received a standardized breakfast that had to be consumed within 20 minutes. Dosing occurred at 30 minutes after the start of breakfast. Following dosing, subjects fasted for 4 hours until lunch. During fasting, fluids other than water were not allowed. On Days 2 to 13, breakfast was not standardized and was given within maximally 1 hour before dosing and consumed before dosing. No fasting after dosing was applicable on these days.
On all dosing days, an evening snack was given within maximally 1 hour before dosing and consumed before dosing.

The nature of series [2]: clinical. As to conditions: in vivo, po. The protocol:
Before dosing (on Days 1, 4, 7, and 10 in the single-dose MR part), subjects fasted overnight for at least 10 hours following a light supper on the evening before. Following dosing, subjects fasted for 4 hours until lunch. During fasting, fluids other than water were not allowed; however, water was not allowed from 2 hours predose until 1 hour postdose (apart from the water taken with the dose).
The AUCs were calculated using the linear up/log down trapezoidal rule, expressed in units of concentration×time.
Subjects with R2 below 0.80 or % AUCextra>20% were not excluded from the dose-proportionality evaluation based on AUC0-inf. A point estimate and 95% CI were produced for the slope. […] Since there were only 2 dose levels in the MAD part, no dose-proportionality analysis was performed for the MAD part.

A short description of series [3]: clinical. As to conditions: human, in vivo, po.
Method: (§1) Urine collection for PK was only conducted in the SAD part, but not in the second period of the FE group A4. […] The subjects were instructed to empty their bladders completely before study drug administration and at the end of each collection interval. A blank urine sample was collected within 12 hours prior to study drug administration. The exact times of urine collection and the urine weight of the entire interval (before and after addition of any urine stabilizers, if used) were recorded in the eCRF.
Series [4] can be described thus: FIH study, FE arm of SAD part: effect of food on plasma PK (150 mg IMB-1018972). The settings on record: human, in vivo. As for the experimental part:
Subjects assigned to Group A4 also participated in the FE arm and received the same single dose of IMB-1018972 or placebo under fed conditions (Food and Drug Administration [FDA]-defined high-fat breakfast after an overnight fast of at least 10 hours) in a second period at least 1 week after drug administration under fasted conditions in the SAD part.
Then, subjects received an FDA-defined high-fat breakfast that had to be consumed within 20 minutes. The entire breakfast had to be consumed by the subjects. […] Following dosing, subjects fasted for 4 hours until lunch. During fasting, fluids other than water were not allowed.
For the second period of Group A4 in the FE arm, and for Day 13 of the single-dose MR part, the FDA-defined high-fat breakfast of 918 kcal consisted of: • 2 fried eggs (in 15 g butter/margarine) (approximately 100 g) • 1 portion of bacon (40 g) (or brie 60+ for vegetarians) • 1 portion of fried potatoes (115 g) • 2 slices of (toasted) (wheat) bread (approximately 70 g) with 15 g margarine • 1 glass of whole milk (240 mL) The total of 918 kcal (vegetarian version 915 kcal) could be broken down as follows: • 39 g protein=156 kcal • 59 g fat=527 kcal • 59 g carbohydrates=235 kcal Blinding

For series [5] the following is noted: human, in vivo, 200 mg. The protocol: On Day 13, subjects received a FDA-defined high-fat breakfast that had to be consumed within 20 minutes. […] Following dosing, subjects fasted for 4 hours until lunch. During fasting, fluids other than water were not allowed. Subjects were not allowed to lie down for 4 hours after dosing, except when required for assessments that needed to be performed.

The conditions of series [6]: human, in vivo. This is another data set of the same source.
Method: as §1
The conditions of series [7]: human, in vivo, po.
A short description of series [8]: FIH study, SAD part: PK in urine.
Method: as §1

As to `COc1ccc(CN2CCN(CCO)CC2)c(OC)c1OC` [IMB-1028814, 2-[4-[(2,3,4-trimethoxyphenyl)methyl]piperazin-1-yl]ethanol], the “Geometric mean Cmax higher on Day 1 after 150 mg fed in the MAD part than after single 150 mg fed in the SAD part” value in series [1] came to 97%. In addition, in series [2] (human), the “Time at which detectable plasma concentrations were generally seen” value was in the range of 15 to 30 min, the Tmax was about 1 h and the half-life lay within 2.6 to 3 h. In series [2] (human, 50 mg), the Tmax is 0.5 to 1.02 h. Besides, the Fashion of elimination entry in series [2] is on record as “biphasic”. Also, in series [3], the CL renal was in the range of 62.7 to 89.5 mL/min. In series [4], the “Cmax lower after high-fat breakfast relative to fasted conditions” value is on record as “approximately 36%”, the “Effect of food on AUC0-inf: estimate (fed relative to fasted)” value is given as 1.12, the “Effect of food on AUC0-t: estimate (fed relative to fasted)” value is recorded as 1.12 and the “Effect of food on Cmax: estimate (fed relative to fasted)” value is listed as 0.64. Besides, the Tmax in series [4] (Median tmax) was determined as 1 h. In series [5], the “Cmax higher after high-fat breakfast relative to fasted conditions” value is listed as “approximately 42%”, the “Effect of food on AUC0-inf: estimate (fed relative to fasted)” value is recorded as 1.16, the “Effect of food on AUC0-t: estimate (fed relative to fasted)” value was 1.16 and the “Effect of food on Cmax: estimate (fed relative to fasted)” value is 1.42. Also, the Primary clearance mechanism result in series [6] is “metabolism”. Further, in series [7], the “AUC0-t higher after the 8-hour MR formulation than after the 4-hour MR formulation” value was found to be 6% and the “AUC0-t lower after the 8-hour MR formulation than after the 4-hour MR formulation” value stood at 26%.

For `COc1ccc(CN2CCNCC2)c(OC)c1OC` [trimetazidine, reference compound], the “Geometric mean Cmax lower on Day 1 after 150 mg fed in the MAD part than after single 150 mg fed in the SAD part” value in series [1] is on record as 32%. Moreover, the “Time at which detectable plasma concentrations were generally seen” value in series [2] (human) was 15 to 30 min. In addition, in series [7], the “AUC0-t higher after the 8-hour MR formulation than after the 4-hour MR formulation” value is 4% and the “AUC0-t lower after the 8-hour MR formulation than after the 4-hour MR formulation” value is recorded as 12%. Also, the Primary clearance mechanism entry in series [8] (concluded from urinary excretion) was “renal excretion”. For the same compound, the “Renal handling (CLR greater than glomerular filtration rate, 7.5 L/h)” value in series [8] (in vivo) was “net tubular secretion”. For the same compound, in series [8] (within 48 hours after single oral 35 mg trimetazidine), the “Arithmetic mean percent of the dose excreted in urine as trimetazidine” value was determined as 54.47%.
